{"source": "patent US7910621B2", "about": "“Small molecule antagonists of XIAP family proteins” (The Regents of the University of Michigan, priority 2004, dated 2011)", "key": {"caspase-9 in PC-3 cells": {"test_system": "caspase-9 in PC-3 cells", "experiment": "Activation of caspase-9 assay, PC-3", "assay_type": "cell-based, human", "details": "for increase in activated caspase-9 as compared to vehicle treated control cells / PC-3 cells positively stained for activated caspase-9: 42 hrs; for PC-3 cells positively stained for activated caspase-9: vehicle control 3.1%", "experimental": "FIGS. 7A and 7B show the activation of caspase-9 by embelin in PC-3 prostate cancer cells and its selectivity in normal prostate epithelial cells. 1×10^6 PC-3 or PrEC cells per well in 6-well culture plates were treated with embelin for 48 hours. […] The cells were collected and stained of active caspase-9 by CaspGLOW Red Active Caspase-9 Staining Kit, and analyzed by flow cytometry in PI channel.\n1×10^6 PC-3 cells per well in 6-well culture plates, were treated with various concentrations of embelin, or the same amount of solvent DMSO as vehicle control, for up to 48 hr. […] The cells were collected for staining of active caspase-9 by CaspGLOW Red Active Caspase-9 Staining Kit (BioVision, Inc., Mountain View, Calif.) according to the manufacturer's instructions, with modification. Briefly, to each tube containing 1×10^6 treated or control cells in 0.3 ml complete culture medium was added 1 μl of Red-LEHD-FMK and incubated for 0.5 hr at 37° C. incubator with 5% CO2. For double staining with Annexin V-FITC, the cells were spun down and resuspended in 100 μl Binding Buffer containing 1× Annexin V-FITC from the Annexin-V-FLUOS Kit (Roche) and incubated at room temperature for 10 min. The cells were then washed two times with Wash Buffer from the Active Caspase-9 Staining Kit. The cells were resuspended in 0.3 ml Binding Buffer and analyzed by flow cytometry, using PI channel for active caspase-9 and FITC channel for apoptosis.\nThe active caspase-9 and Annexin V double stained cells were also observed under Zeiss Laser Scanning Confocal Microscope LSM 510 Meta, using the fluorescent filter sets for rhodamine (Red) and FITC (green) channels. Early apoptotic cells show green fluorescence on the cell membrane while caspase-9 positive cells show bright red staining in the cytoplasm. Photos were taken at original magnification of 630×."}, "[1]": {"test_system": "PC-3 prostate cancer cells", "experiment": "WST-1 cell growth inhibition assay, PC-3", "assay_type": "cell-based", "details": "Homo sapiens, 120 h; PC-3, WST-1, five days", "experimental": "(§1) FIG. 5 presents inhibition of cell growth by embelin in prostate cancer cells (PC-3 and LnCap) and its selectivity in normal human prostate epithelial cells (PrEC) and normal human fibroblast cell line, WI-38. 5000 cells per well in a 96-well cell culture plate were treated with various concentrations of embelin in triplicate. Five days later, the cell growth was measured by the WST-1 cell growth assay kit […] The cell growth results are expressed as the percent of control and calculated from the percent of absorbance of treated wells versus that of vehicle control.\n(§2) Human prostate cancer cell lines (PC-3, LNCap, CL-1, DU-145), and normal human fibroblast cell line WI-38 were obtained from the American Type Culture Collection (ATCC), were grown and maintained in Dulbecco's modified Eagle's medium (DMEM) containing 10% FBS (Invitrogen Corporation). Normal human prostate epithelial cells (PrEC) were obtained from Clonetics (Cambrex Inc., MD) and maintained in the special medium provided by the company. […]\n(§3) Cell growth was determined by the MTT-based assay using Cell Proliferation Reagent WST-1 (Roche) according to the manufacturer's instruction. […] Absorbance was measured with a plate reader at […] with correction at […]. The results are expressed as the percent of absorbance of treated wells versus that of vehicle control."}, "[2]": {"test_system": "LNCap prostate cancer cells", "experiment": "WST-1 cell growth inhibition assay, LNCaP", "assay_type": "cell-based", "details": "Homo sapiens, 120 h, WST-1, five days", "experimental": "as §1, §2, §3"}}}
{"smiles": "CCCCCCCCCCCC1=C(O)C(=O)C=C(O)C1=O", "note": "[embelin]", "values": [{"measurement": "increase in activated caspase-9 as compared to vehicle treated control cells", "setting": "caspase-9 in PC-3 cells; 20 μM", "result": 10, "unit": "fold"}, {"measurement": "PC-3 cells positively stained for activated caspase-9", "setting": "caspase-9 in PC-3 cells; 20 μM", "result": 33.0, "unit": "%"}, {"measurement": "increase in activated caspase-9 as compared to vehicle treated control cells", "setting": "caspase-9 in PC-3 cells; 40 μM", "result": 20, "unit": "fold"}, {"measurement": "PC-3 cells positively stained for activated caspase-9", "setting": "caspase-9 in PC-3 cells; 40 μM", "result": 62.1, "unit": "%"}, {"measurement": "activation of caspase-9 in PC-3 cells", "setting": "caspase-9 in PC-3 cells; in words", "result": "effectively activates caspase-9 in a dose-dependant manner"}, {"measurement": "IC50", "setting": "[1]", "result": 3.7, "unit": "µM"}, {"measurement": "IC50", "setting": "[2]", "result": 5.7, "unit": "µM"}]}
